Reference: ChEMBL document CHEMBL1201862, “PubChem BioAssay data set” (2004)
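Briefly, cells in 96-well plates were exposed to five compound concentrations for 48 h, and endpoints were estimated by linear interpolation. Abbreviation: GI50, concentration required for 50% inhibition of growth.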 Active and inactive are the calls of the source. Rule as the data show it: active = GI50 up to about 1.1 µM and inactive = higher.

Key:
Assay in all cases: NCI anticancer screen, dose series, 48 h
786-0 = system: 786-0
K562 = system: K562
HCT-116 = system: HCT-116
ACHN = system: ACHN
M14 = system: M14
COLO 205 = system: COLO 205
UACC-62 = system: UACC-62
RPMI-8226 = system: RPMI-8226
IGROV-1 = system: IGROV-1
SR = system: SR
OVCAR-8 = system: OVCAR-8
NCI/ADR-RES = system: NCI/ADR-RES
PC-3 = system: PC-3
TK-10 = system: TK-10
MDA-MB-435 = system: MDA-MB-435
BT-549 = system: BT-549
MDA-MB-231 = system: MDA-MB-231
A498 = system: A498
UACC-257 = system: UACC-257

SMILES	GI50 (786-0)	GI50 (K562)	GI50 (HCT-116)	GI50 (ACHN)	GI50 (M14)	GI50 (COLO 205)	GI50 (UACC-62)	GI50 (RPMI-8226)	GI50 (IGROV-1)	GI50 (SR)	GI50 (OVCAR-8)	GI50 (NCI/ADR-RES)	GI50 (PC-3)	GI50 (TK-10)	GI50 (MDA-MB-435)	GI50 (BT-549)	GI50 (MDA-MB-231)	GI50 (A498)	GI50 (UACC-257)
OCC(O)C(O)C(O)C(O)c1nnn[nH]1 (centres undefined)	> 100 µM (inactive)	> 100 µM (inactive)	> 100 µM (inactive)	> 100 µM (inactive)	> 100 µM (inactive)	> 100 µM (inactive)	> 100 µM (inactive)	> 100 µM (inactive)	> 100 µM (inactive)	> 100 µM (inactive)	> 100 µM (inactive)								
OCC1CCCCCCCCCCC12SCCCS2 (centres undefined)	> 100 µM (inactive)	48.2 µM (inactive)	> 100 µM (inactive)	> 100 µM (inactive)	> 100 µM (inactive)	> 100 µM (inactive)	> 100 µM (inactive)	> 100 µM (inactive)	> 100 µM (inactive)	> 100 µM (inactive)		> 100 µM (inactive)	71 µM (inactive)	> 100 µM (inactive)	> 100 µM (inactive)	> 100 µM (inactive)			
CNC(=O)N1CN(c2ccccc2)C2(CCN(CCCC3(c4ccc(F)cc4)OCCO3)CC2)C1=O	> 100 µM (inactive)	> 100 µM (inactive)	> 100 µM (inactive)	> 100 µM (inactive)	> 100 µM (inactive)	> 100 µM (inactive)	> 100 µM (inactive)	> 100 µM (inactive)	> 100 µM (inactive)	> 100 µM (inactive)		> 100 µM (inactive)	> 100 µM (inactive)	> 100 µM (inactive)	> 100 µM (inactive)		> 100 µM (inactive)	> 100 µM (inactive)	
C#CC(O)/C=C/C(O)CCCC(O)CC#CC(O)C#CCCCCC(O)/C=C/CCCCCC(=O)CCCCCCCCCCCCCC(O)C(O)C#CC(=O)O (centres undefined)	> 25 µM (inactive)	> 25 µM (inactive)	> 25 µM (inactive)	> 25 µM (inactive)	> 25 µM (inactive)	> 25 µM (inactive)	> 25 µM (inactive)	> 25 µM (inactive)	4.13 µM (inactive)	7.13 µM (inactive)	> 25 µM (inactive)	> 25 µM (inactive)	> 25 µM (inactive)	> 25 µM (inactive)	> 25 µM (inactive)		> 25 µM (inactive)	> 25 µM (inactive)	> 25 µM (inactive)
O=C1CC2OCC=C3CN4CCC56c7ccccc7N1C5C2C3CC46O (centres undefined)	> 100 µM (inactive)	> 100 µM (inactive)	> 100 µM (inactive)	> 100 µM (inactive)	> 100 µM (inactive)	> 100 µM (inactive)	> 100 µM (inactive)	> 100 µM (inactive)	> 100 µM (inactive)		> 100 µM (inactive)	> 100 µM (inactive)	> 100 µM (inactive)	> 100 µM (inactive)	> 100 µM (inactive)	> 100 µM (inactive)	> 100 µM (inactive)	48.1 µM (inactive)	> 100 µM (inactive)
O=c1c(NCc2ccccc2)c(C2(c3ccccc3F)SCCCS2)c1=O	> 100 µM (inactive)		> 100 µM (inactive)	> 100 µM (inactive)	> 100 µM (inactive)	> 100 µM (inactive)	79.1 µM (inactive)		> 100 µM (inactive)		> 100 µM (inactive)	> 100 µM (inactive)	> 100 µM (inactive)	> 100 µM (inactive)	19.5 µM (inactive)	> 100 µM (inactive)	> 100 µM (inactive)	82.8 µM (inactive)	> 100 µM (inactive)
COc1c2ccoc2nc2c(OC)c(OCC(O)C(C)(C)O)ccc12 (centres undefined) [EVOXINE]	> 100 µM (inactive)	> 100 µM (inactive)	> 100 µM (inactive)	> 100 µM (inactive)	> 100 µM (inactive)	> 100 µM (inactive)	> 100 µM (inactive)	> 100 µM (inactive)	70 µM (inactive)		> 100 µM (inactive)	> 100 µM (inactive)	> 100 µM (inactive)	> 100 µM (inactive)	> 100 µM (inactive)	> 100 µM (inactive)	75.3 µM (inactive)	> 100 µM (inactive)	> 100 µM (inactive)
CCOc1cc(-c2nc3cc(F)ccc3s2)ccc1O	14.4 µM (inactive)	< 0.01 µM (active)	20.6 µM (inactive)	16 µM (inactive)	17.2 µM (inactive)	19.7 µM (inactive)	16.6 µM (inactive)	10.7 µM (inactive)	12.5 µM (inactive)		15.8 µM (inactive)	23 µM (inactive)	14.5 µM (inactive)	18.7 µM (inactive)	18.2 µM (inactive)	16.1 µM (inactive)	21.8 µM (inactive)	12.6 µM (inactive)	16.8 µM (inactive)
NCC(Cc1ccccc1)P(=O)(O)O (centres undefined)	> 100 µM (inactive)	> 100 µM (inactive)	> 100 µM (inactive)	> 100 µM (inactive)	> 100 µM (inactive)	> 100 µM (inactive)	> 100 µM (inactive)		> 100 µM (inactive)		> 100 µM (inactive)	> 100 µM (inactive)	> 100 µM (inactive)	> 100 µM (inactive)	> 100 µM (inactive)	> 100 µM (inactive)	> 100 µM (inactive)	> 100 µM (inactive)	> 100 µM (inactive)
N#Cc1ccc(-c2nc3cc(Cl)ccc3[nH]2)cc1	> 100 µM (inactive)	50.2 µM (inactive)			79.1 µM (inactive)	74.8 µM (inactive)		> 100 µM (inactive)	> 100 µM (inactive)	80 µM (inactive)	42.8 µM (inactive)	30.4 µM (inactive)	40.2 µM (inactive)			68.2 µM (inactive)	> 100 µM (inactive)		
CCOC(=O)c1c(N)sc2c1C(C(=O)OCC)CCCC2 (centres undefined)	> 100 µM (inactive)	52.8 µM (inactive)	43.1 µM (inactive)	83.6 µM (inactive)	> 100 µM (inactive)	85.7 µM (inactive)	78.3 µM (inactive)	46.2 µM (inactive)	> 100 µM (inactive)	34.6 µM (inactive)	89.3 µM (inactive)		32.9 µM (inactive)	> 100 µM (inactive)		> 100 µM (inactive)	46.8 µM (inactive)	20.2 µM (inactive)	57.9 µM (inactive)
Cc1oc2ccccc2c(=O)c1Cn1nnc2ccccc21	> 100 µM (inactive)	56.6 µM (inactive)	59.7 µM (inactive)	41.6 µM (inactive)	80.7 µM (inactive)	42.9 µM (inactive)	41.7 µM (inactive)	35.7 µM (inactive)		35.9 µM (inactive)	43.3 µM (inactive)	60.7 µM (inactive)	> 100 µM (inactive)	> 100 µM (inactive)	41.3 µM (inactive)		91.4 µM (inactive)	62.1 µM (inactive)	26.4 µM (inactive)
COc1ccc(N2C(=O)C(=O)C3(CCCCC3)C2=O)c(OC)c1OC	> 100 µM (inactive)		> 100 µM (inactive)	> 100 µM (inactive)	> 100 µM (inactive)	> 100 µM (inactive)	> 100 µM (inactive)	> 100 µM (inactive)		> 100 µM (inactive)	> 100 µM (inactive)	> 100 µM (inactive)	> 100 µM (inactive)	> 100 µM (inactive)	> 100 µM (inactive)	34 µM (inactive)			> 100 µM (inactive)
Nc1ncnc2c1ccn2CC=C(CO)CO	> 100 µM (inactive)	> 100 µM (inactive)	> 100 µM (inactive)	> 100 µM (inactive)	> 100 µM (inactive)		> 100 µM (inactive)	> 100 µM (inactive)	> 100 µM (inactive)		> 100 µM (inactive)	> 100 µM (inactive)	> 100 µM (inactive)	> 100 µM (inactive)	> 100 µM (inactive)	> 100 µM (inactive)	> 100 µM (inactive)	> 100 µM (inactive)	> 100 µM (inactive)
CCOC(=O)CCC(NC(=O)c1ccc(NCc2ccc3nc(-c4ccccc4)c(Cl)nc3c2)c2ccccc12)C(=O)OCC (centres undefined)	> 100 µM (inactive)	6.46 µM (inactive)	> 100 µM (inactive)	> 100 µM (inactive)	> 100 µM (inactive)	> 100 µM (inactive)	> 100 µM (inactive)				> 100 µM (inactive)	> 100 µM (inactive)	> 100 µM (inactive)	> 100 µM (inactive)	> 100 µM (inactive)	> 100 µM (inactive)	> 100 µM (inactive)	> 100 µM (inactive)	16.2 µM (inactive)
CC1(C)CC(=O)c2c(nc(SSc3nc4c(c(-c5ccc(Br)cc5)c3C#N)C(=O)CC(C)(C)C4)c(C#N)c2-c2ccc(Br)cc2)C1	> 10 µM (inactive)	> 10 µM (inactive)	> 10 µM (inactive)	> 10 µM (inactive)	> 10 µM (inactive)	> 10 µM (inactive)		> 10 µM (inactive)	> 10 µM (inactive)	> 10 µM (inactive)	> 10 µM (inactive)	> 10 µM (inactive)	> 10 µM (inactive)	> 10 µM (inactive)		> 10 µM (inactive)		> 10 µM (inactive)	> 10 µM (inactive)
Brc1ccccc1C1SCc2nc3ccccc3n21 (centres undefined)	14 µM (inactive)	7.01 µM (inactive)	8.07 µM (inactive)	16.4 µM (inactive)	17.2 µM (inactive)	16.7 µM (inactive)	> 10 µM (inactive)	13.7 µM (inactive)	18.6 µM (inactive)	12.6 µM (inactive)	23.6 µM (inactive)			20 µM (inactive)					
